Laboratory results from patent US20250206732A1, “COMPOUNDS AND METHODS FOR THE TARGETED DEGRADATION OF KRAS” (Arvinas Operations, Inc., priority 2022, published 2025).

Target: T1, AsPC-1 HiBiT-KRASG12D (Homo sapiens, UniProt P01116, G12D)
T1 construct: insert the HiBiT tag onto the N-terminus of one or more of the endogenous KRAS alleles; endogenous in cells; host or cells: AsPC-1 (ATCC CRL-1682), CRISPR-Cas9 knock-in clone, one tagged allele
Assay: HiBiT degradation assay (G12D), AsPC-1 HiBiT-KRASG12D cells
Type: cell-based
Settings: 24 hours treatment; for Dmax: ASPC1, AsPC-1 HiBiT-KRASG12D cells, maximum degradation observed; for DC50: AsPC-1 HiBiT-KRASG12D cells, HiBiT luminescence
Summary of the method: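 AsPC-1 cells carried a CRISPR knock-in of an N-terminal HiBiT tag on endogenous KRAS G12D. After 24 h compound treatment at 37 °C (triplicate), viability was read by alamar blue (4 h, fluorescence, normalized to DMSO). HiBiT-KRAS levels were then measured by Nano-Glo HiBiT lytic luminescence after 45 min at room temperature.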

T1 sequence (P01116 1-188 isoform P01116-2 G12D): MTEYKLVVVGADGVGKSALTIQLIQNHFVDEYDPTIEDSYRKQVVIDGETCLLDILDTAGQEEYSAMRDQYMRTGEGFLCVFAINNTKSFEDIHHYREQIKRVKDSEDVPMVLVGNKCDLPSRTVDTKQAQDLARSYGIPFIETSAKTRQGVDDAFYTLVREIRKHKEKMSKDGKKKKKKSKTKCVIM

**Q.** Which results are given for `CCc1cccc2cc(O)cc(-c3ncc4c(N5CC6CCC(C5)N6)nc(OCCN5CCC(OC6CN(c7cc([C@@H](C(=O)N8C[C@H](O)C[C@H]8C(=O)N[C@@H](C)c8ccc(-c9scnc9C)cc8)C(C)C)on7)C6)CC5)nc4c3F)c12` [Compound 216, (2S,4R)-1-[(2S)-2-(3-{3-[(1-{2-[(4-{3,8-diazabicyclo[3.2.1]octan-3-yl}-7-(8-ethyl-3-hydroxynaphthalen-1-yl)-8-fluoropyrido[4,3-d]pyrimidin-2-yl)oxy]ethyl}piperidin-4-yl)oxy]azetidin-1-yl}-1,2-oxazol-5-yl)-3-methylbutanoyl]-4-hydroxy-N-[(1S)-1-[4-(4-methyl-1,3-thiazol-5-yl)phenyl]ethyl]pyrrolidine-2-carboxamide]?
**A.** Dmax: 20 to 60%; DC50: 1 to 3 µM

**Q.** Which results are given for `C#Cc1c(F)ccc2cc(O)cc(-c3ncc4c(N5CC6CCC(C5)N6)nc(OCCN5CCC(CC6CN(c7cc([C@@H](C(=O)N8C[C@H](O)C[C@H]8C(=O)N[C@@H](C)c8ccc(-c9scnc9C)cc8)C(C)C)on7)C6)CC5)nc4c3F)c12` [Compound 217, (2S,4R)-1-[(2S)-2-(3-{3-[(1-{2-[(4-{3,8-diazabicyclo[3.2.1]octan-3-yl}-7-(8-ethynyl-7-fluoro-3-hydroxynaphthalen-1-yl)-8-fluoropyrido[4,3-d]pyrimidin-2-yl)oxy]ethyl}piperidin-4-yl)methyl]azetidin-1-yl}-1,2-oxazol-5-yl)-3-methylbutanoyl]-4-hydroxy-N-[(1S)-1-[4-(4-methyl-1,3-thiazol-5-yl)phenyl]ethyl]pyrrolidine-2-carboxamide]?
**A.** Dmax: 20 to 60%; DC50: 1 to 3 µM

**Q.** What does the source list for `CCc1cccc2cc(O)cc(-c3ncc4c(N5CC6CCC(C5)N6)nc(OCCC5CCN(CC6CN(c7cc([C@H](C(=O)N8C[C@H](O)C[C@H]8C(=O)N[C@@H](C)c8ccc(-c9scnc9C)cc8)C(C)C)on7)C6)CC5)nc4c3F)c12` [Compound 218, (2S,4R)-1-[(2R)-2-(3-{3-[(4-{2-[(4-{3,8-diazabicyclo[3.2.1]octan-3-yl}-7-(8-ethyl-3-hydroxynaphthalen-1-yl)-8-fluoropyrido[4,3-d]pyrimidin-2-yl)oxy]ethyl}piperidin-1-yl)methyl]azetidin-1-yl}-1,2-oxazol-5-yl)-3-methylbutanoyl]-4-hydroxy-N-[(1S)-1-[4-(4-methyl-1,3-thiazol-5-yl)phenyl]ethyl]pyrrolidine-2-carboxamide]?
**A.** Dmax: 80 to 100%; DC50: < 0.6 µM

**Q.** For `CCc1cccc2cc(O)cc(-c3ncc4c(N5CC6CCC(C5)N6)nc(OCCC5CCN(CC6CN(c7cc([C@@H](C(=O)N8C[C@H](O)C[C@H]8C(=O)N[C@@H](C)c8ccc(-c9scnc9C)cc8)C(C)C)on7)C6)CC5)nc4c3F)c12` [Compound 219, (2S,4R)-1-[(2S)-2-(3-{3-[(4-{2-[(4-{3,8-diazabicyclo[3.2.1]octan-3-yl}-7-(8-ethyl-3-hydroxynaphthalen-1-yl)-8-fluoropyrido[4,3-d]pyrimidin-2-yl)oxy]ethyl}piperidin-1-yl)methyl]azetidin-1-yl}-1,2-oxazol-5-yl)-3-methylbutanoyl]-4-hydroxy-N-[(1S)-1-[4-(4-methyl-1,3-thiazol-5-yl)phenyl]ethyl]pyrrolidine-2-carboxamide], which Dmax is on record?
**A.** 20 to 60%

**Q.** And the DC50?
**A.** 1 to 3 µM

**Q.** How did the Dmax turn out when `CCc1cccc2cc(O)cc(-c3ncc4c(N5CC6CCC(C5)N6)nc(OCCN5CCN(CC6CN(c7cc([C@H](C(=O)N8C[C@H](O)C[C@H]8C(=O)N[C@@H](C)c8ccc(-c9scnc9C)cc8)C(C)C)on7)C6)CC5)nc4c3F)c12` [Compound 220, (2S,4R)-1-[(2R)-2-(3-{3-[(4-{2-[(4-{3,8-diazabicyclo[3.2.1]octan-3-yl}-7-(8-ethyl-3-hydroxynaphthalen-1-yl)-8-fluoropyrido[4,3-d]pyrimidin-2-yl)oxy]ethyl}piperazin-1-yl)methyl]azetidin-1-yl}-1,2-oxazol-5-yl)-3-methylbutanoyl]-4-hydroxy-N-[(1S)-1-[4-(4-methyl-1,3-thiazol-5-yl)phenyl]ethyl]pyrrolidine-2-carboxamide] was run?
**A.** 80 to 100%

**Q.** What about the DC50 of the same compound?
**A.** < 0.6 µM
